In the test the test system is T1, human PDE4.
T1 construct: PDE4 is partially purified from undifferentiated human monocytic cells (U-937) according to Thorpy et al. 1992 (J. Pharmacol. Exp. Ther. 263: 1195)
The experiment in a line: IMAP FP in vitro enzymatic PDE4 inhibition assay. As to conditions: for IC50: PDE4 partially purified from human monocytic U-937 cells, 90 minutes at room temperature, fluorescence polarization. The format is biochemical. As for the experimental part: PDE4 specifically hydrolyzes cAMP and releases the product AMP. The potency of PDE inhibition by said agents is determined in an in vitro enzymatic assay. The assay is commercially available (IMAP™ FP assay Molecular Devices Corp.(MDS)) and is optimized for the use of human PDE4. Fluorescently labeled cAMP is hydrolyzed by PDE4 and in a second step, binding of labeled product to a large binding partner allowed product detection by fluorescence polarization (FP) measurements.
PDE4 is partially purified from undifferentiated human monocytic cells (U-937) according to Thorpy et al. 1992 (J. Pharmacol. Exp. Ther. 263: 1195). […] In addition, PDE4 preparations are validated by inhibition studies with PDE4-specific and unspecific PDE inhibitors.
Stock solutions of test compounds are made in DMSO and diluted in assay buffer (10 mM Tris-HCl, 10 mM MgCl2, 0.1% BSA 0.05% NaN3, pH 7.2) to the desired concentrations. The solutions used in the assay contained test compound in assay buffer with 2% DMSO.
10 μl of substrate (at a concentration recommended by the manufacturer) are mixed with 5 μl of appropriately diluted PDE and 5 μl of test compound solution. 5 μl of reaction buffer with 2% DMSO are used for control reactions. […] After incubation for 90 minutes at room temperature, 60 μl of binding reagent are added as specified by the manufacturer. Binding is allowed to proceed for 30 minutes and fluorescence polarization is measured. Dose dependence of PDE inhibition is measured by assaying dilution series of test compounds in duplicates. IC50 values are determined from the measured activities by curve fitting.

The IC50 is the concentration that inhibits the measured activity by half.

The compound `CC[C@H]1OC(=O)[C@H](C)[C@@H](O[C@H]2C[C@@](C)(OC)[C@@H](O)[C@H](C)O2)[C@H](C)[C@@H](O[C@@H]2O[C@H](C)C[C@H](N(C)C)[C@H]2O)[C@](C)(OC)C[C@@H](C)C(=O)[C@H](C)[C@H]2[C@H](SCCn3c(Nc4cccnc4)nc4c(N)ncnc43)C(=O)O[C@@]21C` [Example 2] came in with an IC50 of 3.9 µM. On the same count and under the same terms, as for `CC[C@H]1OC(=O)[C@H](C)[C@@H](O[C@H]2C[C@@](C)(OC)[C@@H](O)[C@H](C)O2)[C@H](C)[C@@H](O[C@@H]2O[C@H](C)C[C@H](N(C)C)[C@H]2O)[C@](C)(OC)C[C@@H](C)C(=O)[C@H](C)[C@H]2[C@H](SCCCc3c(C(=O)Nc4ccncc4)ccc(OC)c3OC)C(=O)O[C@@]21C` [Example 7], the figure is 7.6 µM; as for `CC[C@H]1OC(=O)[C@H](C)[C@@H](O[C@H]2C[C@@](C)(OC)[C@@H](O)[C@H](C)O2)[C@H](C)[C@@H](O[C@@H]2O[C@H](C)C[C@H](N(C)C)[C@H]2O)[C@](C)(OC)C[C@@H](C)C(=O)[C@H](C)[C@H]2[C@H](SCCN(Cc3cccnc3)c3ccc(OC)c(OC4CCCC4)c3)C(=O)O[C@@]21C` [Example 5], 0.85 µM. On the same count and under the same terms, as for `CC[C@H]1OC(=O)[C@H](C)[C@@H](O[C@H]2C[C@@](C)(OC)[C@@H](O)[C@H](C)O2)[C@H](C)[C@@H](O[C@@H]2O[C@H](C)C[C@H](N(C)C)[C@H]2O)[C@](C)(OC)C[C@@H](C)C(=O)[C@H](C)[C@H]2[C@H](SCCn3cnc4c(N)nc(NCc5ccncc5)nc43)C(=O)O[C@@]21C` [Example 13], the figure is 2.6 µM.

In turn, `CCC1OC(=O)C(C)C(OC2CC(C)(OC)C(O)C(C)O2)C(C)C(OC2OC(C)CC(N(C)C)C2O)C(C)(OC)CC(C)C(=O)C(C)C2C(SCCn3c(CCc4cccnc4)nc4c(N)ncnc43)C(=O)OC12C` (stereo not drawn) [Example 1] came in with an IC50 of 13.4 µM. Compared with the last compound, the IC50 is about 5.2-fold higher.

Compound `CC[C@H]1OC(=O)[C@H](C)[C@@H](O[C@H]2C[C@@](C)(OC)[C@@H](O)[C@H](C)O2)[C@H](C)[C@@H](O[C@@H]2O[C@H](C)C[C@H](N(C)C)[C@H]2O)[C@](C)(OC)C[C@@H](C)C(=O)[C@H](C)[C@H]2[C@H](SCCn3cnc4c(N)ncc(C(=O)Nc5ccncc5)c43)C(=O)O[C@@]21C` [Example 10] displayed an IC50 of 1 µM. `CC[C@H]1OC(=O)[C@H](C)C(=O)[C@H](C)[C@@H](O[C@@H]2O[C@H](C)C[C@H](N(C)C)[C@H]2O)[C@](C)(OC)C[C@@H](C)C(=O)[C@H](C)[C@H]2[C@H](SCCN(Cc3c(Cl)cncc3Cl)c3ccc(OC)c(OC4CCCC4)c3)C(=O)O[C@@]21C` [Example 15] registered an IC50 of 0.48 µM.

Consider `CC[C@H]1OC(=O)[C@H](C)[C@@H](O[C@H]2C[C@@](C)(OC)[C@@H](O)[C@H](C)O2)[C@H](C)[C@@H](O[C@@H]2O[C@H](C)C[C@H](N(C)C)[C@H]2O)[C@](C)(OC)C[C@@H](C)C(=O)[C@H](C)[C@H]2[C@H](SC)C(=O)O[C@@]21C` [reference compound], for which the PDE4-inhibiting activity result (up to a concentration of 50 μM in the assay used in the examples) is on record as “does not show any PDE4-inhibiting activity”.

As to `CSCCn1cnc2c(N)ncc(C(=O)Nc3c(Cl)cncc3Cl)c21` [reference compound], the IC50 worked out at 3.6 µM. Still for that read-out and setting: as for `CC[C@H]1OC(=O)[C@H](C)[C@@H](O)[C@H](C)[C@@H](O[C@@H]2O[C@H](C)C[C@H](N(C)C)[C@H]2O)[C@](C)(OC)C[C@@H](C)C(=O)[C@H](C)[C@H]2[C@H](SCCNc3c(C(=O)Nc4c(Cl)cncc4Cl)cnc4c3cnn4CC)C(=O)O[C@@]21C` [Example 16], the figure is 0.11 µM; as for `CC[C@H]1OC(=O)[C@H](C)[C@@H](O[C@H]2C[C@@](C)(OC)[C@@H](O)[C@H](C)O2)[C@H](C)[C@@H](O[C@@H]2O[C@H](C)C[C@H](N(C)C)[C@H]2O)[C@](C)(OC)C[C@@H](C)C(=O)[C@H](C)[C@H]2[C@H](SCCn3cnc4c(N)nc(NCc5cccnc5)nc43)C(=O)O[C@@]21C` [Example 12], 3.8 µM.

In turn, `CC[C@H]1OC(=O)[C@H](C)[C@@H](O[C@H]2C[C@@](C)(OC)[C@@H](O)[C@H](C)O2)[C@H](C)[C@@H](O[C@@H]2O[C@H](C)C[C@H](N(C)C)[C@H]2O)[C@](C)(OC)C[C@@H](C)C(=O)[C@H](C)[C@H]2[C@H](SCCn3cnc4c(N)ncc(C(=O)Nc5c(Cl)cncc5Cl)c43)C(=O)O[C@@]21C` [Example 11] yielded an IC50 of 0.008 µM. Same read-out and setting: as for `CC[C@H]1OC(=O)[C@H](C)[C@@H](O[C@H]2C[C@@](C)(OC)[C@@H](O)[C@H](C)O2)[C@H](C)[C@@H](O[C@@H]2O[C@H](C)C[C@H](N(C)C)[C@H]2O)[C@](C)(OC)C[C@@H](C)C(=O)[C@H](C)[C@H]2[C@H](SCCN(C(=O)c3ccncc3)c3ccc(OC)c(OC4CCCC4)c3)C(=O)O[C@@]21C` [Example 3], the figure is 3.4 µM; as for `CC[C@H]1OC(=O)[C@H](C)[C@@H](O[C@H]2C[C@@](C)(OC)[C@@H](O)[C@H](C)O2)[C@H](C)[C@@H](O[C@@H]2O[C@H](C)C[C@H](N(C)C)[C@H]2O)[C@](C)(OC)C[C@@H](C)C(=O)[C@H](C)[C@H]2[C@H](SCCCn3cnc4c(N)ncc(C(=O)NCC(=O)OC)c43)C(=O)O[C@@]21C` [Example 9], 24.2 µM. Consider `CC[C@H]1OC(=O)[C@H](C)[C@@H](O[C@H]2C[C@@](C)(OC)[C@@H](O)[C@H](C)O2)[C@H](C)[C@@H](O[C@@H]2O[C@H](C)C[C@H](N(C)C)[C@H]2O)[C@](C)(OC)C[C@@H](C)C(=O)[C@H](C)[C@H]2[C@H](SCCNc3c(C(=O)Nc4c(Cl)cncc4Cl)cnc4c3cnn4CC)C(=O)O[C@@]21C` [Example 6], for which 0.37 µM corresponded to half-maximal inhibition (IC50). Compared with the last compound, the IC50 is about 65-fold lower. On the same count and under the same terms, for `CC[C@H]1OC(=O)[C@H](C)[C@@H](O[C@H]2C[C@@](C)(OC)[C@@H](O)[C@H](C)O2)[C@H](C)[C@@H](O[C@@H]2O[C@H](C)C[C@H](N(C)C)[C@H]2O)[C@](C)(OC)C[C@@H](C)C(=O)[C@H](C)[C@H]2[C@H](SCCN(Cc3ccncc3)c3ccc(OC)c(OC4CCCC4)c3)C(=O)O[C@@]21C` [Example 4] the value was 0.28 µM; for `CC[C@H]1OC(=O)[C@H](C)[C@@H](O)[C@H](C)[C@@H](O[C@@H]2O[C@H](C)C[C@H](N(C)C)[C@H]2O)[C@](C)(OC)C[C@@H](C)C(=O)[C@H](C)[C@H]2[C@H](SCCn3cnc4c(N)ncc(C(=O)Nc5c(Cl)cncc5Cl)c43)C(=O)O[C@@]21C` [Example 14], 0.0049 µM.

In turn, `CC[C@H]1OC(=O)[C@H](C)[C@@H](O[C@H]2C[C@@](C)(OC)[C@@H](O)[C@H](C)O2)[C@H](C)[C@@H](O[C@@H]2O[C@H](C)C[C@H](N(C)C)[C@H]2O)[C@](C)(OC)C[C@@H](C)C(=O)[C@H](C)[C@H]2[C@H](SCCCn3cnc4c(N)ncc(C(=O)Nc5ccncc5)c43)C(=O)O[C@@]21C` [Example 8] yielded an IC50 of 4.7 µM.

Source of the values: patent US8445451B2, “Macrolides and uses of macrolides” (Basilea Pharmaceutica AG, priority 2008, dated 2013).
